Test [1] deals with Dutch APP transgenic mice. To be noted: cited from earlier work.
The next test deals with T1, human mGlu2 (Homo sapiens, UniProt Q14416).
T1 construct: expressed in transfected cells; host or cells: HEK-293 cells stably co-expressing GIRK channels
The test can be described thus: mGlu GIRK cell-based thallium flux assay, human mGlu2. The conditions noted are these: HEK-293 cells co-expressing human mGlu2 and GIRK, EC80 glutamate. A digest of the protocol:
(§1)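 HEK-293 cells stably co-expressing GIRK with human mGlu3, human mGlu2 or rat mGlu2 were loaded 1 h at 25° C with Thallos dye, then given compound (30 μM to 1.5 nM final, 10-point) for 2 min 20 s before EC80 glutamate plus thallium. Baseline-corrected fluorescence slope, normalized to ECmax glutamate, fitted to 4-parameter logistic for IC50.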

A further test addresses T2, rat mGlu2 (Rattus norvegicus, UniProt P31421).
T2 construct: expressed in transfected cells; host or cells: HEK-293 cells stably co-expressing GIRK channels
The test can be described thus: mGlu GIRK cell-based thallium flux assay, rat mGlu2. To be noted: HEK-293 cells co-expressing rat mGlu2 and GIRK, EC80 glutamate. A digest of the protocol: as §1

A further test concerns the target Rat mGlu3 (UniProt P31422). The test can be described thus: mGlu GIRK cell-based thallium flux assay, mGlu3. To be noted: HEK-293 cells co-expressing mGlu3 and GIRK, EC80 glutamate.
The test system of another test is rat. The conditions noted are these: normal animals; cited from earlier work.
Another test has as its system mouse. The conditions noted are these: normal animals; cited from earlier work.
In test [2] the test system is central mGlu2 and mGlu3 receptors. To be noted: in vivo; cited from earlier work.
For another test, the system named is C57B16/J mice. The conditions noted are these: cited from earlier work.
Another test concerns Helpless (H) mice. To be noted: cited from earlier work; for activity in the tail suspension test: Helpless (H) mice; for antidepressant effect in helpless mice: LY341495 acute administration, fluoxetine chronic (21 days) treatment.
The next test concerns mice. To be noted: cited from earlier work.
In another test the test system is mGlu2. To be noted: cited from earlier work.

By IC50 is commonly meant the concentration that gives 50% inhibition. Read a high IC50 as weaker potency.

T1 sequence (Q14416 19-872): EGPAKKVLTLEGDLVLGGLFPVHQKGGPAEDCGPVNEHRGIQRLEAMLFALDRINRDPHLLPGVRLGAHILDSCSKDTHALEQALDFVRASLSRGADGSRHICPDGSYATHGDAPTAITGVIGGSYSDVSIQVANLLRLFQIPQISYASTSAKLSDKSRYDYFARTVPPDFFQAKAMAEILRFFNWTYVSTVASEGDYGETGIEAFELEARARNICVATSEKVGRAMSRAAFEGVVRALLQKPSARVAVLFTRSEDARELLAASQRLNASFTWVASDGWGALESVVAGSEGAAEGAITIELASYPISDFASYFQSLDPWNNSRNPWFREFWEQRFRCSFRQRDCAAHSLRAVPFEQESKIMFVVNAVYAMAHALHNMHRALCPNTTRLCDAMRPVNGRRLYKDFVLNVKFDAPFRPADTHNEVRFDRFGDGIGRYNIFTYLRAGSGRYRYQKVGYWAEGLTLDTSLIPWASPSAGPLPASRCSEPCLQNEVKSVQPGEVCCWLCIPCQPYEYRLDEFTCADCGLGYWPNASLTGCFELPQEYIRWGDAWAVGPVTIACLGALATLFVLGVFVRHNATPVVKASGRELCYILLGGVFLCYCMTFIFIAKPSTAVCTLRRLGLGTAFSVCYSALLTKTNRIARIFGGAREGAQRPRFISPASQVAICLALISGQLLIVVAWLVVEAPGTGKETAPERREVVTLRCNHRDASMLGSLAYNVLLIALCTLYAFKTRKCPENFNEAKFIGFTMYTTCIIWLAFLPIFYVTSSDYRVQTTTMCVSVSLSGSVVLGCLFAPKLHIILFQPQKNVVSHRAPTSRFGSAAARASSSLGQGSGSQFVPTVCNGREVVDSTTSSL
T2 sequence (P31421 19-872): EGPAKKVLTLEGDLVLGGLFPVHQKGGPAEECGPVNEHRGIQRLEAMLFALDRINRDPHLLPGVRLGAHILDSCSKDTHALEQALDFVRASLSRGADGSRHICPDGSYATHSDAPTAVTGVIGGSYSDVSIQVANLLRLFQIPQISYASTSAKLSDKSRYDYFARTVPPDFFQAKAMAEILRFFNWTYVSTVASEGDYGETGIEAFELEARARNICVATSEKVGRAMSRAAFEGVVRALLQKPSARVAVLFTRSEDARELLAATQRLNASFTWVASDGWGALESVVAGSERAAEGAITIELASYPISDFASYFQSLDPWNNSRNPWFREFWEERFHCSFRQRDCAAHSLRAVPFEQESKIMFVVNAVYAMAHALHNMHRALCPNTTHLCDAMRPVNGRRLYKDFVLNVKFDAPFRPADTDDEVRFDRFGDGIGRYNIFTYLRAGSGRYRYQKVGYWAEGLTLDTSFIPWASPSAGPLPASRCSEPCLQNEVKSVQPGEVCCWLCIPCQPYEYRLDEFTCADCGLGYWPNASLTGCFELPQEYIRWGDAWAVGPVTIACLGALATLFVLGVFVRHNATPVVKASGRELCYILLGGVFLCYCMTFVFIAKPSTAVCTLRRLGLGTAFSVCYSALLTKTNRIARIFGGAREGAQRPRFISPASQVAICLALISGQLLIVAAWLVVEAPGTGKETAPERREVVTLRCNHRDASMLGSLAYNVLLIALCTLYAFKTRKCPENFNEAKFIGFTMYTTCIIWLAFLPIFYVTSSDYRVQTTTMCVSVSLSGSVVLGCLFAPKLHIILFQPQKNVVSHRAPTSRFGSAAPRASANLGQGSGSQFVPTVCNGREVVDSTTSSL

Turning to `CCCCCCCOC(=O)[C@@]1(F)[C@@H]2C[C@@H](OCc3ccc(Cl)c(Cl)c3)[C@@](N)(C(=O)O)[C@@H]21` [BCI-838], the “duration of inhibition of group II mGlu receptors by brain concentration of active metabolite BCI-632” value in [1] (once-daily oral dosing) is 22 h. In addition, the “learning and memory impairment” value in [1] (three months of treatment, Dutch APP transgene) was “reversed Dutch APP transgene-associated learning and memory impairment”. In [1] (three months of treatment), the anxiolytic effects entry is on record as “provided anxiolytic effects”. Further, in test [1] (three months of treatment, two AD mouse models), the “levels of monomeric and oAβ peptides in the hippocampus and cortex” value was “decreased the levels of monomeric and oAβ peptides”. Moreover, the “hippocampal progenitor cell proliferation” value in test [1] (wild-type and Alzheimer's diseased mice, 3 months) is listed as “stimulated hippocampal progenitor cell proliferation”.
Take `O=C1NCc2cc(-c3ccncc3)c(-c3ccc(F)cc3)cc21` [Compound 4, 6-(4-fluorophenyl)-5-(pyridin-4-yl)isoindolin-1-one]: the 50% inhibitory concentration (IC50) against human mGlu2 and at rat mGlu2 was > 10000 nM in each case.
`Cc1ncc(-c2cc3c(cc2-c2ccc(F)cc2)C(=O)NC3)s1` [Compound 5, 6-(4-fluorophenyl)-5-(2-methylthiazol-5-yl)isoindolin-1-one]: the IC50 against rat mGlu2 amounted to 839 nM; against Rat mGlu3, 5820 nM.
Take `Cn1cc2cc(-c3cc4c(cc3-c3ccc(F)cc3)C(=O)NC4)ccc2n1` [Compound 7, 6-(4-fluorophenyl)-5-(2-methyl-2H-indazol-5-yl)isoindolin-1-one]: the IC50 is 1560 nM at human mGlu2 and > 10000 nM against rat mGlu2.
Consider `Cc1c(-c2cc3c(cc2-c2ccc(F)cc2)C(=O)NC3)ccc2[nH]ncc12` [Compound 9, 6-(4-fluorophenyl)-5-(4-methyl-1H-indazol-5-yl)isoindolin-1-one], for which the 50% inhibitory concentration (IC50) against rat mGlu2 turned out to be 1280 nM; on Rat mGlu3, 1980 nM.
`O=C1NCc2cc(-c3ccc4ocnc4c3)c(-c3ccc(F)cc3F)cc21` [Compound 24, 5-(benzo[d]oxazol-5-yl)-6-(2,4-difluorophenyl)isoindolin-1-one]: the concentration for half-maximal inhibition (IC50) was 953 nM at rat mGlu2 and > 10000 nM at Rat mGlu3.
The matching figures for `Cc1ccc(-c2cc3c(cc2-c2ccc(F)cc2)C(=O)NC3)nc1` [Compound 52, 6-(4-fluorophenyl)-5-(5-methylpyridin-2-yl)isoindolin-1-one]: 953 nM and > 10000 nM.
Take `O=C1NCc2cc(C3CCOCC3)c(-c3ccc(F)cc3)cc21` [Compound 64, 6-(4-fluorophenyl)-5-(tetrahydro-2H-pyran-4-yl)isoindolin-1-one]: the IC50 on rat mGlu2 was 762 nM; against Rat mGlu3, > 10000 nM.
The matching figures for `Cc1ccc(-c2cc3c(cc2-c2ccc(F)cc2F)C(=O)NC3)cn1` [Compound 69, 6-(2,4-difluorophenyl)-5-(6-methylpyridin-3-yl)isoindolin-1-one]: 659 nM and > 10000 nM.
In the case of `O=C1NCc2cc(-c3cccnc3C3CC3)c(-c3ccc(F)cc3F)cc21` [Compound 74, 5-(2-cyclopropylpyridin-3-yl)-6-(2,4-difluorophenyl)isoindolin-1-one], the IC50 against Rat mGlu3 was > 10000 nM.
Consider `O=C1NCc2cc(-c3cnc4[nH]ccc4c3)c(-c3ccc(F)cc3F)cc21` [Compound 87, 6-(2,4-difluorophenyl)-5-(1H-pyrrolo[2,3-b]pyridin-5-yl)isoindolin-1-one], for which the half-maximal inhibitory concentration (IC50) is 618 nM against rat mGlu2 and > 10000 nM on Rat mGlu3.
Take `Cc1c(-c2cc3c(cc2-c2ccc(F)cc2F)C(=O)NC3)cc(C#N)n1C` [Compound 90, 4-(6-(2,4-difluorophenyl)-1-oxoisoindolin-5-yl)-1,5-dimethyl-1H-pyrrole-2-carbonitrile]: the IC50 stood at 185 nM against human mGlu2 and 225 nM against rat mGlu2.
With `Cc1cc(C#N)cc(-c2cc3c(cc2-c2ccc(F)cc2F)C(=O)NC3)c1` [Compound 91, 3-(6-(2,4-difluorophenyl)-1-oxoisoindolin-5-yl)-5-methylbenzonitrile], the concentration for half-maximal inhibition (IC50) is 697 nM on rat mGlu2 and > 10000 nM against Rat mGlu3.
On to `N#Cc1cccc(-c2cc3c(cc2-c2ccc(F)cc2F)C(=O)NC3)c1F` [Compound 94, 3-(6-(2,4-difluorophenyl)-1-oxoisoindolin-5-yl)-2-fluorobenzonitrile], for which the concentration for half-maximal inhibition (IC50) against rat mGlu2 is 477 nM; on Rat mGlu3 it was > 10000 nM.
The matching figures for `Cc1ccc(C#N)cc1-c1cc2c(cc1-c1ccc(F)cc1F)C(=O)NC2` [Compound 96, 3-(6-(2,4-difluorophenyl)-1-oxoisoindolin-5-yl)-4-methylbenzonitrile]: 585 nM and > 10000 nM.
The matching figures for `Cc1cc(-c2cc3c(cc2-c2ccc(F)cc2F)C(=O)NC3)c(C#N)n1C` [Compound 98, 3-(6-(2,4-difluorophenyl)-1-oxoisoindolin-5-yl)-1,5-dimethyl-1H-pyrrole-2-carbonitrile]: 136 nM and 2620 nM.
For the molecule `COc1cncc(-c2cc3c(cc2-c2ccc(F)cc2F)C(=O)NC3)c1` [Compound 101, 6-(2,4-difluorophenyl)-5-(5-methoxypyridin-3-yl)isoindolin-1-one], the figures for the 50% inhibitory concentration (IC50) against rat mGlu2 and at Rat mGlu3 were 534 nM and > 10000 nM, respectively.
The matching figures for `O=C1NCc2cc(-c3ccn(C4CC4)n3)c(-c3ccc(F)cc3F)cc21` [Compound 108, 5-(1-cyclopropyl-1H-pyrazol-3-yl)-6-(2,4-difluorophenyl)isoindolin-1-one]: 347 nM and 4790 nM.
Regarding `O=C1NCc2cc(CN3CC(O)(C(F)(F)F)C3)c(-c3ccc(F)cc3F)cc21` [Compound A12, 6-(2,4-difluorophenyl)-5-((3-hydroxy-3-(trifluoromethyl)azetidin-1-yl)methyl)isoindolin-1-one], the half-inhibitory concentration (IC50) is 528 nM at human mGlu2 and > 10000 nM on rat mGlu2.
Regarding `N[C@](CC1c2ccccc2Oc2ccccc21)(C(=O)O)[C@H]1C[C@@H]1C(=O)O` [LY341495], in the test with rat, the “antidepressant-like effects in rat forced swim test” value is “Antidepressant-like effects”. For the same molecule, the “antidepressant-like effects in mouse tail-suspension test” value in the test with mouse is “Antidepressant-like effects”. For the same molecule, in test [2], the “hypolocomotor effect of mGlu2/3 agonist (LY379268)” value is “achieved the same result”. For the same molecule, the “immobility time in the FST” value with C57B16/J mice was “dose-dependently reduced immobility time”. In the test on Helpless (H) mice, the “activity in the tail suspension test” value was “active” and the “antidepressant effect in helpless mice” value was “potent antidepressant effect”. Moreover, the marble-burying behavior result in the test with mice is “significantly reduce marble-burying behavior”. Besides, in the test on mGlu2, the Aβ-induced neurodegeneration entry is listed as “this effect was prevented”.
Consider `CCS(=O)(=O)N(Cc1cccnc1)c1cccc(-c2ccc(C#N)cc2)c1` [LY566332], for which the Aβ-induced neurodegeneration entry with mGlu2 was “amplified Aβ-induced neurodegeneration”.
Consider `Cc1cc(-c2cccc(C3=Nc4cc(C)c(C(F)(F)F)cc4NC(=O)C3)c2)cc(C)n1` [RO4491533], for which the “hypolocomotor effect of mGlu2/3 agonist (LY379268)” value in [2] was “reversed the hypolocomotor effect”. Besides, the “immobility time in the FST” value in the test on C57B16/J mice is reported as “dose-dependently reduced immobility time”. In addition, the “activity in the tail suspension test” value in the test with Helpless (H) mice is given as “active”.
Regarding `CNCCC(Oc1ccc(C(F)(F)F)cc1)c1ccccc1` (centres unmarked) [fluoxetine], the “antidepressant effect in helpless mice” value in the test with Helpless (H) mice was “full antidepressant effect”.

Source of the values: patent publication US20260098030A1, “NEGATIVE ALLOSTERIC MODULATORS OF METABOTROPIC GLUTAMATE RECEPTOR 2” (Vanderbilt University, priority 2022, published 2026).
